Consider one compound from patent US6495551B1, “Substituted phenyloxazolidinones and their use as antibiotics” (priority 1997, dated 2002).

Holding throughout (assay): MIC by agar-dilution, standard in vitro test system
Common to all, as to type: cell-based
Holding throughout (conditions): IsoSensitest agar, inoculum 10^4 CFU/spot, 37° C. for 24 hours

Assay [1] relates to Staphylococcus aureus Novb. Res (Novobiocin resistant). The protocol:
(§1) The following results were obtained on a standard in vitro test system. The activity is described in terms of the minimum inhibitory concentration (MIC) determined by the agar-dilution technique with an inoculum size of 10^4 CFU/spot.
(§2) The organisms were tested on a standard semi-defined susceptability test medium (IsoSensitest agar), using an inoculum of 10^4 CFU/spot and an incubation temperature of 37° C. for 24 hours.
Novb. Res=Novobiocin resistant

Assay [2] has as its system Staphylococcus aureus MRQR (methicillin resistant quinolone resistant). The protocol: as §1, §2
MRQR=methicillin resistant quinolone resistant

The test system of assay [3] is Coagulase Negative Staphylococcus MR (methicillin resistant). The protocol:
as §1, §2

The next assay deals with Bacillus subtilis. The protocol: (§3) The following results were obtained on a standard in vitro test system. The activity is described in terms of the minimum inhibitory concentration (MIC) determined by the agar-dilution technique with an inoculum size of 10^4 CFU/spot. The organisms were tested on a standard semi-defined susceptability test medium (IsoSensitest agar), using an inoculum of 10^4 CFU/spot and an incubation temperature of 37° C. for 24 hours.

Assay [4] deals with Coagulase Negative Staphylococcus MS. The protocol:
as §3

For another assay, the system named is Enterococcus faecalis. The method, then:
as §3

In assay [5] the test system is Staphylococcus aureus Oxford. The protocol:
as §3

For assay [6], the system named is Streptococcus pyogenes C203. The method, then:
as §3

In general, MIC refers to the lowest concentration found to suppress growth. Read a high MIC as weaker potency.

Values after ≈ are worked out from the molar mass of the structure shown.

Regarding `CC(=O)NC[C@H]1CN(c2ccc(-n3cnc(C(=O)Nc4nccs4)c3)c(F)c2)C(=O)O1` [Example 43, N-[(5S)-3-(3-Fluoro-4-(4-(thiazol-2-ylaminocarbonyl)imidazol-1-yl)phenyl)-2-oxooxazolidin-5-ylmethyl]acetamide], the MIC in assay [1] worked out at 0.25 µg/mL (≈ 0.562 µM); in assay [2] it was 1 µg/mL (≈ 2.25 µM); in assay [3], 0.25 µg/mL (≈ 0.562 µM); in the assay on Bacillus subtilis, 0.25 µg/mL (≈ 0.562 µM); in assay [4] it was 0.06 µg/mL (≈ 0.135 µM); with Enterococcus faecalis, 0.5 µg/mL (≈ 1.12 µM). Moreover, the MIC in assay [5] and in assay [6] was 0.125 µg/mL (≈ 0.281 µM) in each case.
